Data on 1 compound can be found in patent publication US11944603B2, “Use of compound or medicinal derivative thereof in inhibiting AIM2 protein activity” (priority 2022, dated 2024).

Assay [1] concerns AIM2 pathway in HaCaT cells. Put plainly: HaCaT cell model, real-time fluorescence PCR of IL-1β and AIM2 pathway genes. To be noted: 25 uM. It is filed as cell-based. Here is the method:
(§1) (1) A positive control (PC), a negative control (NC) and respective treatment groups are set. An inclusion of Lip3000 (Lipofectamine™ 3000 Transfection Reagent) and OligodA-T (OligodA-T:Lip3000:P3000=1:1:25, a concentration of OligodA-T is 1 ug/mL) is used to transfect HaCat cells, and only the same amount of transfection reagent (Lip3000:P3000=1:1) is added in NC group. The HaCat cells are co-transfected with an inclusion of Lip3000-OligodA-T at gradient doses (0.1 uM, 1 uM, 5 uM, 10 uM and 25 uM) of SLD-1 in the respective treatment groups.
(2) The positive control (PC), negative control (NC) and the respective treatment groups are incubated in a cell incubator containing 5% CO2 at 37° C. for 24 hours, and the cells are collected for real-time fluorescence PCR detection to observe the effect of different doses of inhibitors on the activation of AIM2 pathway in the HaCaT cells.
(4) In addition, the effect of 25 uM of SLD-1 on the transcription level of genes in the AIM2 pathway of the HaCat cell model is detected, and results are shown in FIG. 11.

The test system of a further assay is IMQ mice. Put plainly: IMQ psoriasis mouse model: PASI scores, skin phenotype, skin pathology. It is filed as in vivo, C57/BL6 mice. Here is the method:
(§2) Dimethyl sulfoxide (DMSO) is used to dissolve SLD-1 powder, the powder is weighed according to different dosage, then diluted with β-cyclodextrin, and a final concentration of DMSO shall not exceed 5%. The dose gradients of SLD-1 set are 0 mg/kg, 2.5 mg/kg, 5 mg/kg and 10 mg/kg respectively. Each mouse is calculated as 20 grams (g), and 0 mg, 0.05 mg, 0.1 mg and 0.2 mg of SLD-1 are administered respective mice every day.
(§3) Seven-week-old C57/BL6 mice are selected, fed and modeled in a […] (SPF) environment. The experimental groups are as follows: • (1) mouse skin smeared with IMQ and 0 mg/kg of SLD-1; • (2) mouse skin smeared with IMQ and 2.5mg/kg of SLD-1; • (3) mouse skin smeared with IMQ and 5 mg/kg of SLD-1; • (4) mouse skin smeared with IMQ and 10 mg/kg of SLD-1; • (5) mouse skin smeared with Vaseline and 0 mg/kg of SLD-1; • (6) mouse skin smeared with Vaseline and 2.5mg/kg of SLD-1; • (7) mouse skin smeared with Vaseline and 5 mg/kg of SLD-1; and • (8) mouse skin smeared with Vaseline and 10 mg/kg of SLD-1.
(§4) Six mice in each group are shaved back hair to make a exposed skin reach 4 square centimeters. A start date of the experiment is set as day 0 and an end date is set as day 6. From day 0 to Day 5, 100 μL medicine solution is taken every day and evenly smeared mouse skin to absorb. From day 2 to day 5, each mouse 62.5 mg IMQ is smeared every day after 20 minutes of SLD-1 inhibitor. The mouse skins are scored every day, the mice are sacrificed on day 6, and skin tissue is taken for a series of tests.
PASI scores, skin phenotypes and skin pathological phenotypes of the above IMQ modeled mice are shown in FIG. 13, FIG. 14 and FIG. 15 respectively.

For another assay, the target named is T1, human AIM2 protein (Homo sapiens, UniProt O14862).
T1 construct: a human full-length AIM2 protein is expressed and purified firstly by pET28a vector; made in house
T1 sequence (O14862 1-343): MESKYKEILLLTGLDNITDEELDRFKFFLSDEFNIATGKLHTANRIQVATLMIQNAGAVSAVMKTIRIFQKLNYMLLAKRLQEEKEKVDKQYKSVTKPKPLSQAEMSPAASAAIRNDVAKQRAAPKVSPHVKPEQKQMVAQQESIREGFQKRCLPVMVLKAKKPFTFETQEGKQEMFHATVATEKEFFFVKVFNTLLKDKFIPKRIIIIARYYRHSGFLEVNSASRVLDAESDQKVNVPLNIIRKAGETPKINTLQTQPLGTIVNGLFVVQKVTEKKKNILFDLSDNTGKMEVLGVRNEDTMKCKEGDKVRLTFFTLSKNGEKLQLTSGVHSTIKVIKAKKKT
Briefly: Affinity by surface-plasmon resonance (Biacore), amino coupling. To be noted: human full-length AIM2 protein, SPR; read-out: binding constant. The method, then:
In the embodiment of the disclosure, the affinity between SLD-1 and human AIM2 protein is detected. Specifically, a human full-length AIM2 protein is expressed and purified firstly by pET28a vector, and then the affinity is determined by CMS chip amino-coupling method through a surface-plasmon resonance (SPR) method of Biacore.

In assay [2] the test system is AIM2 downstream protein in HaCaT cells. Briefly: HaCaT cell model, expression of AIM2 downstream protein. To be noted: 25 uM. It is filed as cell-based. Here is the method:
as §1
(5) Moreover, the expression of AIM2 downstream protein in the HaCaT cells treated with 25 uM SLD-1 is detected, and results are shown in FIG. 12.

The next assay concerns HaCaT cells. Put plainly: HaCaT cell model, cell state under microscope (pyroptosis). To be noted: 25 uM, microscope 100 times and 400 times. It counts as cell-based. Here is the method:
as §1
(3) In this situation, a cell state of 25 uM gradient is observed under microscope fields of 100 times and 400 times, and results are shown in FIG. 10.

Assay [3] concerns T lymphocytes of TCRγ/CD3+ RORγt in mouse skin. Put plainly: IMQ psoriasis mouse model: flow cytometry of skin lymphocytes. To be noted: 2.5 mg/kg, compared with IMQ mice without SLD-1. It is filed as in vivo, C57/BL6 mice. The method, then:
as §2, §3
Six mice in each group are shaved back hair to make a exposed skin reach 4 square centimeters. A start date of the experiment is set as day 0 and an end date is set as day 6. […] The mouse skins are scored every day, the mice are sacrificed on day 6, and skin tissue is taken for a series of tests. […]
A general note: In flow cytometry, cells or beads pass a laser one at a time.

For assay [4], the system named is AIM2 pathway in mouse skin. Briefly: IMQ psoriasis mouse model: AIM2 pathway gene transcription and protein levels in skin. It counts as in vivo, C57/BL6 mice. Here is the method:
as §2, §3, §4

Assay [5] concerns IL-1β mRNA in HaCaT cells. Briefly: Screening in HaCaT cell model stimulated by OligodA-T, real-time PCR of IL-1β mRNA. It is filed as cell-based. To be noted: 10 uM, 24 hours, OligodA-T 1 ug/mL, among 100 compounds. Here is the method: The protective ability of 100 compounds screened above against cell pyroptosis of HaCaT cells stimulated by OligodA-T is evaluated by the real-time fluorescent quantitative polymerase chain reaction (PCR) detection of IL-1β mRNA in the stimulated cells.
1. Positive control (PC) and negative control (NC) are set in the experimental group. An inclusion of Lip3000 (Lipofectamine™ 3000 Transfection Reagent) and OligodA-T (OligodA-T:Lip3000:P3000=1:1:25, a concentration of OligodA-T is 1 microgram per […] (ug/mL)) is used to transfect HaCat cells. Lip3000-OligodA-T and 10 micromoles per liter (uM) small molecule inhibitor are used to transfect the HaCat cells in each treatment group, and only the same amount of transfection reagent (Lip3000:P3000=1:1) is added in NC group.
2. Each experimental group is incubated in a cell incubator containing 5% CO2 for 24 hours at 37° C., and the cells are collected for real-time fluorescence PCR detection.

The next assay addresses T2, mouse AIM2 protein (Mus musculus, UniProt Q91VJ1).
T2 construct: a mouse full-length AIM2 protein is expressed and purified firstly by pET28a vector; made in house
T2 sequence (Q91VJ1 1-354): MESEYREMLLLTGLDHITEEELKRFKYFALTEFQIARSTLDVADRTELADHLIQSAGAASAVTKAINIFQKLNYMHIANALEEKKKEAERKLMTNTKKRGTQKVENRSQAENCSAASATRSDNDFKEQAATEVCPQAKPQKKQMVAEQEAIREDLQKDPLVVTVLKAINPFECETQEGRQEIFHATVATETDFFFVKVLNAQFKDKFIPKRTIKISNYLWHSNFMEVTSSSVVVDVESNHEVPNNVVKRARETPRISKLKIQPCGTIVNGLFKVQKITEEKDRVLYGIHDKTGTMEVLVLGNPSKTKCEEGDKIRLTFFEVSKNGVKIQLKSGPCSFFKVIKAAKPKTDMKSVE
Briefly: Affinity by surface plasmon resonance (Biacore), amino coupling. To be noted: mouse full-length AIM2 protein, SPR; read-out: binding constant. Here is the method: In the embodiment of the disclosure, the affinity between SLD-1 and mouse AIM2 protein is detected. Specifically, a mouse full-length AIM2 protein is expressed and purified firstly by pET28a vector, and then the affinity is determined by CMS chip amino coupling method by a surface plasmon resonance (SPR) method of Biacore.
In general terms: Surface plasmon resonance follows binding to a sensor surface in real time, without labels.

Turning to `Cn1c(=O)n(C)c2cc(C(O)COc3ccc(CNC4C5CC6CC(C5)CC4C6)cc3)ccc21` (stereo not drawn) [SLD-1], the “transcription of major genes in the AIM2 pathway compared with the PC” value in assay [1] was “significantly decreased”. Besides, in assay [1] (of gradient 0.1, 1, 5, 10, 25 uM, 24 hours), the “IL-1β transcription levels compared to the PC” value is on record as “reduced IL-β transcription levels in the HaCat cells the most”. Besides, the “reduction effect on inflammatory phenotype of IMQ mice” value in the assay on IMQ mice (2.5 mg/kg smeared on skin) is reported as “the most significant”. Further, the “reduction effect on inflammatory phenotype of IMQ mice, comparison of doses” value with IMQ mice (5 mg/kg and 10 mg/kg smeared on skin) was “no difference between 5 mg/kg and 10 mg/kg”. Further, the “inflammatory phenotype of IMQ mice (PASI, skin phenotype, pathology)” value with IMQ mice (three doses 2.5, 5, 10 mg/kg smeared on skin, day 0 to day 5) was “reduced the inflammatory phenotype of IMQ mice to varying degrees”. Also, on human AIM2 protein, the Kd is 10.3 µM. In addition, in [2], the “AIM2 downstream procaspase-1 and proIL-1β expression” value is recorded as “no effect”; the “content of caspase-1p20 and IL-1βp17” value is “reduces the content of caspase-1p20 and IL-1βp17”. Moreover, in the assay with HaCaT cells, the “cell state (pyroptosis, density, adhesion)” value was “close to that of the NC, with very few transparent pyroptosis cells, a high cell density and a good adhesion”. Also, in assay [3], the “proportion of TCRγ/CD3+ RORγt in skin lymphocytes” value is recorded as “significantly lower”. Also, in assay [4] (2.5 mg/kg), the “AIM2 downstream procaspase-1 and proil-1β in the mouse skin” value is given as “no effect”; the “content of caspase-1p20 and IL-1βp17 in the mouse skin” value was “decreases the content of caspase-1p20 and IL-1βp17”. For the same compound, the “transcription levels of AIM2 pathway genes in the mouse skin” value in [4] (respective groups) is recorded as “no significant difference”. Besides, in [5], the “inhibitory effect on IL-1β mRNA compared with the positive control” value is “most significant inhibitory effect (p<0.0001)”. The Kd at mouse AIM2 protein worked out at 10.3 µM.
